Data from US7462600B2, “Macrolides” (Pfizer Inc, priority 2004, dated 2008).
In brackets after ≈: the same amount, converted by molar mass. Read-outs that look alike come from different tables or passages of the source.

Key:
Assay type in all cases: cell-based
[1] = test system: Streptococcus pyogenes 1079; experiment: MIC, microtiter broth dilution (NCCLS M100-S14), S. pyogenes 1079 (ermB)
Summary of the method: (§1)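 Where available, resistant strains were tested alongside the susceptible parent they derive from. The MIC, determined by tray-based broth dilution and NCCLS M100-S14 interpretation, served as the comparison value.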

[2] = test system: Streptococcus pneumoniae 1016; experiment: MIC, microtiter broth dilution (NCCLS M100-S14), S. pneumoniae 1016 (susceptible)
Summary of the method: as §1

[3] = test system: Haemophilus influenzae 1218; experiment: MIC, microtiter broth dilution (NCCLS M100-S14), H. influenzae 1218 (susceptible)
Summary of the method: as §1

[4] = test system: Streptococcus pneumoniae 1095; conditions: microtiter broth dilution
Summary of the method: as §1

[5] = test system: Streptococcus pneumoniae 1175; conditions: microtiter broth dilution
Summary of the method: as §1

[6] = S. pneumoniae 1016 (susceptible)
[7] = H. influenzae 1218 (susceptible)

Row | SMILES | MIC S. pyogenes 1079 ([1]; Streptococcus pyogenes 1079) [µg/mL] | MIC S. pneumo. 1016 ([2]; Streptococcus pneumoniae 1016) [µg/mL] | MIC H. influenzae 1218 ([3]; Haemophilus influenzae 1218) [µg/mL] | MIC S. pneumo. 1095 ([4]; Streptococcus pneumoniae 1095) [µg/mL] | MIC S. pneumo. 1175 ([5]; Streptococcus pneumoniae 1175) [µg/mL] | MIC S. pyogenes 1079 ([1]; S. pyogenes 1079 (ermB)) [µg/mL] | MIC S. pneumo. 1016 [2, 6] [µg/mL] | MIC H. influenzae 1218 [3, 7] [µg/mL] | MIC S. pneumo. 1095 ([4]; S. pneumoniae 1095 (ermB)) [µg/mL] | MIC S. pneumo. 1175 ([5]; S. pneumoniae 1175 (mefA)) [µg/mL]
1 | CC[C@H]1OC(=O)[C@H](C)C(=O)[C@H](C)[C@@H](O[C@@H]2O[C@H](C)C[C@H](N(C)C)[C@H]2O)[C@](C)(OC)C[C@@H](C)C(=O)[C@H](C)[C@H]2N(CC3(C)CN(Cc4ccc5cccnc5c4)C3)C(=O)O[C@]12C [6.06] | >64.00 | <0.06 | 1 (≈ 1.19 µM) | 0.5 (≈ 0.597 µM) | 0.5 (≈ 0.597 µM) |  |  |  |  | 
2 | CCC1OC(=O)C(C)C(=O)C(C)C(OC2OC(C)CC(N(C)C)C2O)C(C)(OC)CC(C)C(=O)C(C)C2N(C3CN(S(=O)(=O)c4ccc(-n5nccn5)cc4)C3)C(=O)OC12C (stereo not shown) [Example 3.55, 3-descladinosyl-11,12-dideoxy-4-O-methyl-3-oxo-12,11-(oxycarbonyl-(1-(4-(2H-1,2,3-triazol-2-yl)benzenesulfonyl)-azetidin-3-yl)-imino)erythromycin A] | <0.06 | <0.06 | 1 (≈ 1.14 µM) | <0.06 | <0.06 |  |  |  |  | 
3 | CCC1OC(=O)C(C)C(=O)C(C)C(OC2OC(C)CC(N(C)C)C2O)C(C)(OC)CC(C)C(=O)C(C)C2N(CC3CN(C(=O)c4cncc5ccccc45)C3)C(=O)OC12C.O=CO (stereo not shown) [4.47] | >64.00 | <0.06 | 0.75 | 0.19 | 0.12 |  |  |  |  | 
4 | CCC1OC(=O)C(C)(F)C(=O)C(C)C(OC2OC(C)CC(N(C)C)C2O)C(C)(OC)CC(C)C(=O)C(C)C2N(C3CN(S(=O)(=O)c4cccc5nccnc45)C3)C(=O)OC12C (stereo not shown) [Example 3.98, 3-descladinosyl-11,12-dideoxy-2-fluoro-6-O-methyl-3-oxo-12,11-(oxycarbonyl-(1-(quinoxaline-5-sulfonyl)-azetidin-3-yl)-imino)-erythromycin A] | 0.25 (≈ 0.285 µM) | <0.063 | 0.25 (≈ 0.285 µM) | <0.063 | <0.063 |  |  |  |  | 
5 | CCC1OC(=O)C(C)C(=O)C(C)C(OC2OC(C)CC(N(C)C)C2O)C(C)(OC)CC(C)C(=O)C(C)C2N(CC3CN(C(=O)c4cc(F)ccc4F)C3)C(=O)OC12C (stereo not shown) [4.02] | 100 (≈ 122 µM) | 0.01 (≈ 0.0122 µM) | 3.12 (≈ 3.8 µM) | 0.5 (≈ 0.608 µM) | 0.5 (≈ 0.608 µM) |  |  |  |  | 
6 | CCC1OC(=O)C(C)C(=O)C(C)C(OC2OC(C)CC(N(C)C)C2O)C(C)(OC)CC(C)C(=O)C(C)C2N(C3CN(S(=O)(=O)c4ccc(OC)c5ncccc45)C3)C(=O)OC12C (stereo not shown) [Example 3.101, 3-descladinosyl-11,12-dideoxy-6-O-methyl-3-oxo-12,11-(oxycarbonyl-(1-(8-methoxyquinoline-5-sulfonyl)-azetidin-3-yl)-imino)-erythromycin A] | <0.063 | <0.063 | 0.125 (≈ 0.141 µM) | <0.063 | <0.063 |  |  |  |  | 
7 | CCC1OC(=O)C(C)C(=O)C(C)C(OC2OC(C)CC(N(C)C)C2O)C(C)(OC)CC(C)C(=O)C(C)C2N(C3CN(S(=O)(=O)c4cccc5c(C#N)cccc45)C3)C(=O)OC12C (stereo not shown) [Example 3.49] | 0.5 (≈ 0.566 µM) | <0.06 | 0.5 (≈ 0.566 µM) | <0.06 | <0.06 |  |  |  |  | 
8 | CCC1OC(=O)C(C)C(=O)C(C)C(OC2OC(C)CC(N(C)C)C2O)C(C)(OC)CC(C)C(=O)C(C)C2N(CC3CCN(Cc4ccno4)CC3)C(=O)OC12C (stereo not shown) [15.09] |  |  |  |  |  | >64.00 | <0.06 | 16 (≈ 20.2 µM) | >64.00 | 0.5 (≈ 0.632 µM)
9 | CCC1OC(=O)C(C)C(=O)C(C)C(OC2OC(C)CC(N(C)C)C2O)C(C)(OC)CC(C)C(=O)C(C)C2N(CC3CCN(Cc4cnn(-c5ccccn5)c4)C3)C(=O)OC12C (stereo not shown) [11.14] |  |  |  |  |  | 32 (≈ 37.5 µM) | <0.06 | 2 (≈ 2.34 µM) | 0.25 (≈ 0.293 µM) | 0.25 (≈ 0.293 µM)
10 | CC[C@H]1OC(=O)[C@H](C)[C@@H](OC(=O)N2CCCC2)[C@H](C)[C@@H](O[C@@H]2O[C@H](C)C[C@H](N(C)C)[C@H]2O)[C@](C)(OC)C[C@@H](C)C(=O)[C@H](C)[C@H]2N(CC3CN(Cc4nc5ccccc5s4)C3)C(=O)O[C@]12C [Example 5.14, 2-R^2: (benzo[d]thiazol-2-yl)methyl; R^#: pyrrolidin-1-yl] | 32 (≈ 34.5 µM) | <0.06 | 4 (≈ 4.31 µM) | 4 (≈ 4.31 µM) | <0.06 |  |  |  |  | 
11 | CCC1OC(=O)C(C)C(=O)C(C)C(OC2OC(C)CC(N(C)C)C2O)C(C)(OC)CC(C)C(=O)C(C)C2N(CC3CCCN3C(=O)c3cn4cccnc4n3)C(=O)OC12C (stereo not shown) [10.43] |  |  |  |  |  | >64.00 | <0.06 | 1 (≈ 1.19 µM) | <0.06 | 0.25 (≈ 0.297 µM)
12 | CCC1OC(=O)C(C)C(=O)C(C)C(OC2OC(C)CC(N(C)C)C2O)C(C)(OC)CC(C)C(=O)C(C)C2N(CC3CCCN3C(=O)c3ccnc4ncsc34)C(=O)OC12C (stereo not shown) [10.44] |  |  |  |  |  | >64.00 | <0.06 | 1 (≈ 1.17 µM) | <0.06 | 0.12 (≈ 0.14 µM)
13 | CCC1OC(=O)C(C)C(=O)C(C)C(OC2OC(C)CC(N(C)C)C2O)C(C)(OC)CC(C)C(=O)C(C)C2N(C3CN(S(=O)(=O)c4cccc5ccccc45)C3)C(=O)OC12C (stereo not shown) [Example 3.02, 3-descladinosyl-11,12-dideoxy-6-O-methyl-3-oxo-12,11-(oxycarbonyl-(1-(naphthalene-1-sulfonyl)-azetidin-3-yl)-imino)-erythromycin A] | 0.5 (≈ 0.583 µM) | <0.06 | 0.12 (≈ 0.14 µM) | <0.06 | <0.06 |  |  |  |  | 
14 | CC[C@H]1OC(=O)[C@H](C)C(=O)[C@H](C)[C@@H](O[C@@H]2O[C@H](C)C[C@H](N(C)C)[C@H]2O)[C@](C)(OC)C[C@@H](C)C(=O)[C@H](C)[C@H]2N(CC3(O)CN(Cc4nc(C)[nH]c4C)C3)C(=O)O[C@]12C [7.07] |  |  |  |  |  | >64.00 | 0.12 (≈ 0.149 µM) | 16 (≈ 19.9 µM) | 8 (≈ 9.93 µM) | 4 (≈ 4.96 µM)
15 | CCCC(c1ccnc2ccccc12)N1CC(N2C(=O)OC3(C)C(CC)OC(=O)C(C)C(=O)C(C)C(OC4OC(C)CC(N(C)C)C4O)C(C)(OC)CC(C)C(=O)C(C)C23)C1 (stereo not shown) [Example 1.64, 3-descladinosyl-11,12-dideoxy-6-O-methyl-3-oxo-12,11-(oxycarbonyl-(1-(1-(quinolin4-yl)-butyl)-azetidin-3-yl)-imino)-erythromycin A] | 1 (≈ 1.17 µM) | <0.06 | 1 (≈ 1.17 µM) | <0.06 | <0.06 |  |  |  |  | 
16 | CCC1OC(=O)C(C)C(=O)C(C)C(OC2OC(C)CC(N(C)C)C2O)C(C)(OC)CC(C)C(=O)C(C)C2N(C3CN(C(c4ccccc4)c4cccnc4)C3)C(=O)OC12C (single isomer, unassigned) [Example 1.66, phenyl-(pyridin-3-yl)methyl (*)] | 64 (≈ 76.6 µM) | <0.06 | 2 (≈ 2.4 µM) | 0.5 (≈ 0.599 µM) | <0.06 |  |  |  |  | 
17 | CCC1OC(=O)C(C)C(=O)C(C)C(OC2OC(C)CC(N(C)C)C2O)C(C)(OC)CC(C)C(=O)C(C)C2N(C3CN(S(=O)(=O)c4c(C)n[nH]c4C)C3)C(=O)OC12C (stereo not shown) [Example 3.29, 3-descladinosyl-11,12-dideoxy-6-O-methyl-3-oxo-12,11-(oxycarbonyl-(1-(3,5-dimethyl-1H-pyrazole-4-sulfony)-azetidin-3-yl)-imino)-erythromycin A] | 8 (≈ 9.68 µM) | <0.06 | 0.25 (≈ 0.303 µM) | <0.06 | 0.5 (≈ 0.605 µM) |  |  |  |  | 
18 | CCC1OC(=O)C(C)C(=O)C(C)C(OC2OC(C)CC(N(C)C)C2O)C(C)(OC)CC(C)C(=O)C(C)C2N(C3CN(S(=O)(=O)c4cccc5cnccc45)C3)C(=O)OC12C (stereo not shown) [Example 3.04, 3-descladinosyl-11,12-dideoxy-6-O-methyl-3-oxo-12,11-(oxycarbonyl-(1-(isoquinoline-5-sulfonyl)-azetidin-3-yl)-imino)-erythromycin A] | 0.12 (≈ 0.14 µM) | <0.06 | 0.25 (≈ 0.291 µM) | <0.06 | <0.06 |  |  |  |  | 
19 | CCC1OC(=O)C(C)C(=O)C(C)C(OC2OC(C)CC(N(C)C)C2O)C(C)(OC)CC(C)C(=O)C(C)C2N(C3CN(S(=O)(=O)c4cccc(F)c4)C3)C(=O)OC12C (stereo not shown) [Example 3.08, 3-fluorobenzenesulfonyl] | 16 (≈ 19.4 µM) | <0.06 | 0.5 (≈ 0.605 µM) | <0.06 | <0.06 |  |  |  |  | 
20 | CCC1OC(=O)C(C)C(=O)C(C)C(OC2OC(C)CC(N(C)C)C2O)C(C)(OC)CC(C)C(=O)C(C)C2N(C3CN(S(=O)(=O)c4ccc(F)cc4)C3)C(=O)OC12C (stereo not shown) [Example 3.09, 4-fluorobenzenesulfonyl] | 16 (≈ 19.4 µM) | <0.06 | 0.25 (≈ 0.303 µM) | <0.06 | 0.25 (≈ 0.303 µM) |  |  |  |  | 
